Data as given in US20260364080A1, “PYRAZOLO-PYRIMIDINONE COMPOUNDS FOR USE IN METHODS OF INHIBITING WEE1 A KINASE” (Acrivon Therapeutics, Inc., priority 2023, published 2026).
Read-outs that look alike come from different tables or passages of the source.

What was measured:
[1] = target: T1, recombinant human Wee1A kinase (Homo sapiens, UniProt P30291); assay: Wee1A kinase binding assay (LanthaScreen Eu time-resolved FRET)
T1 construct: full length Wee1 kinase was expressed by baculovirus in insect cells; purchased Invitrogen PV3817; host or cells: insect cells (baculovirus)
T1 sequence (P30291 whole entry): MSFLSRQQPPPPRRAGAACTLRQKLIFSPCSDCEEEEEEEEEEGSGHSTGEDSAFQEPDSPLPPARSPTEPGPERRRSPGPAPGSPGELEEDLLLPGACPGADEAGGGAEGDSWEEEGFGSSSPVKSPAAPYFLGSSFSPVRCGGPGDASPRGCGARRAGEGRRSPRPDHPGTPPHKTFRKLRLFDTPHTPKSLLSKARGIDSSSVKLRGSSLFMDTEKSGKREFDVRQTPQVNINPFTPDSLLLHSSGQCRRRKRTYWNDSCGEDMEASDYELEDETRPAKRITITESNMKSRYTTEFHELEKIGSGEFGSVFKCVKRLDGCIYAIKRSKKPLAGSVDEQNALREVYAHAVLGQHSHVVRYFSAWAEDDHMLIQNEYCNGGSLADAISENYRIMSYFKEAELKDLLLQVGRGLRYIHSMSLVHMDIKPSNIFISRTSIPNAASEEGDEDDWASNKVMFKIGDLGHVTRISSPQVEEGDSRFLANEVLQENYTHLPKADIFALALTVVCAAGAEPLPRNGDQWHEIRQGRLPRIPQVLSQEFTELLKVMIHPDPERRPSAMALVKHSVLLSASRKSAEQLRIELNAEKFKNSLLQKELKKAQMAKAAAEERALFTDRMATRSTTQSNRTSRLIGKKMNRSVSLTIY
How it was run: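 Full-length, baculovirus-expressed GST-tagged Wee1A (5 nM) was mixed with 2 nM Eu-anti-GST antibody, 30 nM kinase tracer 178 and compound (1% DMSO). Buffer was 50 mM HEPES pH 7.5, 10 mM MgCl2, 1 mM EGTA, 0.01% Brij-35, incubated 60 min at room temperature. TR-FRET 665/615 nm emission ratios from duplicates were curve-fitted.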

[2] = target: T2, Wee1A kinase (CDK1 Tyr15 phosphorylation in ACHN renal cell carcinoma cells) (Homo sapiens, UniProt P30291); assay: High-content imaging of pCdk1 Y15, Wee1A kinase target engagement in ACHN cells; format: cell-based
T2 construct: pCDK1 Tyr15 immunofluorescence read-out
T2 sequence (P30291 whole entry): as above
How it was run: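 EC50 values come from the per-well fraction of cells with nuclear pCdk1 Y15 staining, normalised to DMSO control, by automated immunofluorescence imaging. Cells were ACHN renal carcinoma, treated 4 h with compound at 7–5,000 nM or 0.3–200 nM.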

[3] = target: T3, Myt1 kinase (recombinant PMYT-1) (Homo sapiens, UniProt Q99640); assay: Myt1 kinase binding assay (LanthaScreen Eu Kinase Binding Assay)
T3 construct: full length PMYT-1 was expressed by baculovirus in insect cells; purchased Invitrogen A30984; host or cells: insect cells (baculovirus)
T3 sequence (Q99640 1-499): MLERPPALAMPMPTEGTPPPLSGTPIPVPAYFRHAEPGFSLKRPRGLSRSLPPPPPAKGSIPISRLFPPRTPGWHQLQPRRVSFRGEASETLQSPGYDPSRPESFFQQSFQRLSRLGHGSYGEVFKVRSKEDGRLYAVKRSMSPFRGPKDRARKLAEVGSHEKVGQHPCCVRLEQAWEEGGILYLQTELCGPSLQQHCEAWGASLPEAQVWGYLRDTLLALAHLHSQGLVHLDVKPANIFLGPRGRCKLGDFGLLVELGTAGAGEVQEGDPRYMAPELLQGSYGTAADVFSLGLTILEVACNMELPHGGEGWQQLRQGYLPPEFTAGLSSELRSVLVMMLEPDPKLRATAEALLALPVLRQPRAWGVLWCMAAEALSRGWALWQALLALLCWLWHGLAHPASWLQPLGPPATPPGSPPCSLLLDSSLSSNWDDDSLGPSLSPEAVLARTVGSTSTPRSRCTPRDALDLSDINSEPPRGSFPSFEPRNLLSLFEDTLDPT
How it was run: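 Compound binding to Myt1 kinase was assessed using the LanthaScreen Eu Kinase Binding Assay. This europium-based binding format was applied to quantify how strongly each compound bound to the Myt1 enzyme, and the binding affinity was reported for each compound as an IC50 value.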

[4] = 30 nM tracer 178, 5 nM Wee1A kinase, 2 nM Eu-labeled antibody, 60 minutes at room temperature, read-out: Wee1A kinase Binding IC50
[5] = 4 h treatment, nuclear positivity for pCdk1 Y15 vs DMSO control, read-out: CDK1 Tyr15 Phosphorylation EC50
[6] = 3 nM tracer 178, 2.5 nM PMYT-1, 1 nM Eu-labeled antibody, read-out: Myt1 kinase Binding IC50
[7] = read-out: CDK1 Tyr15 Phosphorylation EC50, 4 h treatment, nuclear positivity for pCdk1 Y15 vs DMSO control
[8] = Myt1 kinase Binding IC50, 3 nM tracer 178, 2.5 nM PMYT-1, 1 nM Eu-labeled antibody

Row | Compound | IC50 [1, 4] | EC50 [2, 5] | IC50 [3, 6] | IC50 [1] | EC50 [2, 7] | IC50 [3, 8]
1 | C=CCn1c(=O)c2cnc(Nc3ccc(OC(F)(F)F)cc3)nc2n1-c1cccc(NC2CCNCC2)n1 [Compound 135, 1-{6-[(piperidin-4-yl)amino]pyridin-2-yl}-2-(prop-2-en-1-yl)-6-{[4-(trifluoromethoxy)phenyl]amino}-1H,2H,3H-pyrazolo[3,4-d]pyrimidin-3-one] | < 10 nM | 500 to 1000 nM | 100 to 500 nM |  |  | 
2 | C=CCn1c(=O)c2cnc(Nc3ccc(OC(F)(F)F)c(C)c3)nc2n1-c1cccc(NC2CCNCC2)n1 [Compound 136, 6-{[3-methyl-4-(trifluoromethoxy)phenyl]amino}-1-{6-[(piperidin-4-yl)amino]pyridin-2-yl}-2-(prop-2-en-1-yl)-1H,2H,3H-pyrazolo[3,4-d]pyrimidin-3-one] | < 10 nM | 100 to 500 nM | 100 to 500 nM |  |  | 
3 | C=CCn1c(=O)c2cnc(Nc3ccc(Br)cc3)nc2n1-c1cccc(NC2CCNCC2)n1 [Compound 143, 6-[(4-bromophenyl)amino]-1-{6-[(piperidin-4-yl)amino]pyridin-2-yl}-2-(prop-2-en-1-yl)-1H,2H,3H-pyrazolo[3,4-d]pyrimidin-3-one] | < 10 nM | 500 to 1000 nM | 20 to 100 nM |  |  | 
4 | C=CCn1c(=O)c2cnc(Nc3cc(Cl)cc(Br)c3)nc2n1-c1cccc(NC2CCNCC2)n1 [Compound 144, 6-[(3-bromo-5-chlorophenyl)amino]-1-{6-[(piperidin-4-yl)amino]pyridin-2-yl}-2-(prop-2-en-1-yl)-1H,2H,3H-pyrazolo[3,4-d]pyrimidin-3-one] | < 10 nM | 500 to 1000 nM | > 500 nM |  |  | 
5 | C=CCn1c(=O)c2cnc(Nc3ccc(Cl)c(Cl)c3)nc2n1-c1cccc(NC2CCNCC2)n1 [Compound 146, 2-allyl-6-(3,4-dichlorophenylamino)-1-[6-(4-piperidylamino)-2-pyridyl]-1,2-dihydro-3H-1,2,5,7-tetraazainden-3-one] | < 10 nM | > 1000 nM | 100 to 500 nM |  |  | 
6 | C=CCn1c(=O)c2cnc(Nc3ccc(Cl)cc3)nc2n1-c1cccc(N(CCC)C2CCNCC2)n1 [Compound 147] |  |  |  | < 10 nM | > 1000 nM | > 500 nM
7 | C=CCn1c(=O)c2cnc(Nc3ccc(Cl)cc3)nc2n1-c1cccc(O[C@H]2CCN(C)C2)n1 [Compound 148, 1-{6-[(S)-1-methyl-3-pyrrolidinyloxy]-2-pyridyl}-2-allyl-6-(p-chlorophenylamino)-1,2-dihydro-3H-1,2,5,7-tetraazainden-3-one] | < 10 nM | 100 to 500 nM | 20 to 100 nM |  |  | 
8 | C=CCn1c(=O)c2cnc(Nc3ccc(Cl)cc3)nc2n1-c1cccc(N(CCC)C2CCN(C)CC2)n1 [Compound 149, 6-[(4-chlorophenyl)amino]-1-{6-[(1-methylpiperidin-4-yl)(propyl)amino]pyridin-2-yl}-2-(prop-2-en-1-yl)-1H,2H,3H-pyrazolo[3,4-d]pyrimidin-3-one] |  |  |  | < 10 nM | 500 to 1000 nM | > 500 nM
9 | CN1CCC(Oc2cccc(-n3c4nc(Nc5ccc(Cl)cc5)ncc4c(=O)n3C)n2)CC1 [Compound 150, 6-(p-chlorophenylamino)-2-methyl-1-[6-(1-methyl-4-piperidyloxy)-2-pyridyl]-1,2-dihydro-3H-1,2,5,7-tetraazainden-3-one] | < 10 nM | 100 to 500 nM | 20 to 100 nM |  |  | 
10 | C=CCn1c(=O)c2cnc(Nc3ccc(Cl)c(Cl)c3)nc2n1-c1cccc(NC2CCN(C)CC2)n1 [Compound 151, 2-allyl-6-(3,4-dichlorophenylamino)-1-[6-(1-methyl-4-piperidylamino)-2-pyridyl]-1,2-dihydro-3H-1,2,5,7-tetraazainden-3-one] | < 10 nM | 100 to 500 nM | 100 to 500 nM |  |  | 
11 | Cc1cc(Nc2ncc3c(=O)n(C)n(-c4cccc(OC5CCN(C)CC5)n4)c3n2)ccc1F [Compound 152, 6-(4-fluoro-3-toluidino)-2-methyl-1-[6-(1-methyl-4-piperidyloxy)-2-pyridyl]-1,2-dihydro-3H-1,2,5,7-tetraazainden-3-one] | < 10 nM | 100 to 500 nM | 20 to 100 nM |  |  | 
12 | Cn1c(=O)c2cnc(Nc3ccc(Cl)cc3)nc2n1-c1cccc(OC2CCNCC2)n1 [Compound 153, 6-(p-chlorophenylamino)-2-methyl-1-[6-(4-piperidyloxy)-2-pyridyl]-1,2-dihydro-3H-1,2,5,7-tetraazainden-3-one] | < 10 nM | 500 to 1000 nM | 20 to 100 nM |  |  | 
13 | Cc1cc(Nc2ncc3c(=O)n(C)n(-c4cccc(OC5CCNCC5)n4)c3n2)ccc1F [Compound 154, 6-(4-fluoro-3-toluidino)-2-methyl-1-[6-(4-piperidyloxy)-2-pyridyl]-1,2-dihydro-3H-1,2,5,7-tetraazainden-3-one] | < 10 nM | 100 to 500 nM | 100 to 500 nM |  |  | 
14 | C=CCn1c(=O)c2cnc(Nc3cc(C)cc(OC(F)(F)F)c3)nc2n1-c1cccc(NC2CCNCC2)n1 [Compound 155, 6-{[3-methyl-5-(trifluoromethoxy)phenyl]amino}-1-{6-[(piperidin-4-yl)amino]pyridin-2-yl}-2-(prop-2-en-1-yl)-1H,2H,3H-pyrazolo[3,4-d]pyrimidin-3-one] | < 10 nM | 500 to 1000 nM | 100 to 500 nM |  |  | 
15 | C=CCn1c(=O)c2cnc(Nc3ccc(Cl)cc3)nc2n1-c1cccc(N(C)C2CCNCC2)n1 [Compound 156, 6-[(4-chlorophenyl)amino]-1-{6-[methyl(piperidin-4-yl)amino]pyridin-2-yl}-2-(prop-2-en-1-yl)-1H,2H,3H-pyrazolo[3,4-d]pyrimidin-3-one] |  |  |  | < 10 nM | 500 to 1000 nM | 100 to 500 nM
16 | C=CCn1c(=O)c2cnc(Nc3cc(-c4ccccc4)ns3)nc2n1-c1cccc(NC2CCN(C)CC2)n1 [Compound 158, 2-allyl-1-[6-(1-methyl-4-piperidylamino)-2-pyridyl]-6-(3-phenyl-5-isothiazolylamino)-1,2-dihydro-3H-1,2,5,7-tetraazainden-3-one] | < 10 nM | 100 to 500 nM | 20 to 100 nM |  |  | 
17 | C=CCn1c(=O)c2cnc(Nc3cc(C)cc(F)c3)nc2n1-c1cccc(NC2CCNCC2)n1 [Compound 160, 2-allyl-6-(3-fluoro-5-toluidino)-1-[6-(4-piperidylamino)-2-pyridyl]-1,2-dihydro-3H-1,2,5,7-tetraazainden-3-one] | < 10 nM | 100 to 500 nM | 100 to 500 nM |  |  | 
18 | C=CCn1c(=O)c2cnc(Nc3ccc(Cl)cc3)nc2n1-c1cccc(N[C@H]2CCCNC2)n1 [Compound 165, 1-{6-[(S)-3-piperidylamino]-2-pyridyl}-2-allyl-6-(p-chlorophenylamino)-1,2-dihydro-3H-1,2,5,7-tetraazainden-3-one] | < 10 nM | 500 to 1000 nM | 20 to 100 nM |  |  | 
19 | C=CCn1c(=O)c2cnc(Nc3ccc(Cl)cc3)nc2n1-c1cccc(N[C@@H]2CCCNC2)n1 [Compound 166, 1-{6-[(R)-3-piperidylamino]-2-pyridyl}-2-allyl-6-(p-chlorophenylamino)-1,2-dihydro-3H-1,2,5,7-tetraazainden-3-one] | < 10 nM | > 1000 nM | 100 to 500 nM |  |  | 
20 | C=CCn1c(=O)c2cnc(Nc3ccc(Cl)cc3)nc2n1-c1cccc(N[C@@H]2CCCN(C)C2)n1 [Compound 168, 1-{6-[(R)-1-methyl-3-piperidylamino]-2-pyridyl}-2-allyl-6-(p-chlorophenylamino)-1,2-dihydro-3H-1,2,5,7-tetraazainden-3-one] | < 10 nM | > 1000 nM | > 500 nM |  |  | 
21 | C=CCn1c(=O)c2cnc(Nc3cnn(C(C)C)c3)nc2n1-c1cccc(N(C)C2CCNCC2)n1 [Compound 169, 1-{6-[methyl(piperidin-4-yl)amino]pyridin-2-yl}-2-(prop-2-en-1-yl)-6-{[1-(propan-2-yl)-1H-pyrazol-4-yl]amino}-1H,2H,3H-pyrazolo[3,4-d]pyrimidin-3-one] |  |  |  | < 10 nM | > 1000 nM | > 500 nM
